From patent US20110190389A1, “OXYLIPINS FROM LONG CHAIN POLYUNSATURATED FATTY ACIDS AND METHODS OF MAKING AND USING THE SAME” (priority 2007, published 2011)

Key:
[1] = tested on: inflammatory cytokine production; test: Consumption of LCPUFA oils: inflammatory cytokine and eicosanoid production; type: in vivo; details: consumption of the oil; DHA dose approximately three times higher in DHA-alone oil
IL-1β = test: Mouse dorsal air pouch model: IL-1β in exudates; type: in vivo, C57/B16 mice; details: 100 ng docosanoid intra-pouch; for secretion of IL-1β in air pouch exudates: 100 ng TNFα, 4 hours
Excerpt: (§1) Pure 17R-hydroxy DHA (17R-HDHA) was purchased from Caymen Chemicals (Ann Arbor, Mich.). Docosanoids 17-hydroxy-DPAn-6 (17-HDPAn-6) and 10,17-dihydroxyDPAn-6 (10,17-HDPAn-6) were synthesized biogenically from DPAn-6 (NuChek Prep, Elysian, Minn.) using soybean 15-lipoxygenase (Sigma-Aldrich) and purified by HPLC as described in Example 2. Organic solvents were evaporated and the compounds were re-dissolved in phosphate buffered saline (PBS), filter sterilized and concentrations were adjusted to 1000 ng/ml using molar extinction coefficients of 28,000 and 40,000 M^−1 cm^−1 for the mono- and dihydroxy docosanoids, respectively. Female C57/B16 mice (n=10 mice per group) were injected with sterile air subcutaneously in the back to initiate dorsal air pouches. Six days later, 0.9 ml sterile PBS followed by 100 ng docosanoid in 0.1 ml PBS or PBS alone were administered by intra-pouch injection. This injection was followed within 5 min by intra-pouch injection of 100 ng of mouse recombinant TNFα (Peprotech, Inc, NJ, USA) in 0.1 ml PBS. Control animals received no TNFα. As a positive control, 2 mg/kg indomethacin (Calbiochem, San Diego, Calif.) was administered intraperitoneally 30 min prior to administration of TNFα. Four hours after TNFα administration, air pouch exudates were removed and cells were stained with Turk's solution and counted. Exudates were frozen for later cytokine analyses using commercial ELISA kits. Bars represent group (n=10) means (±stdev). Groups were compared using Student's t test, with p values indicated.

[2] = tested on: total cell migration into air pouch exudates; test: Mouse dorsal air pouch model: total cell migration into exudates; type: in vivo, C57/B16 mice; details: 100 ng docosanoid intra-pouch; for total number of cells in the pouch: 100 ng TNFα, 4 hours
Excerpt: as §1

[3] = tested on: macrophage chemotactic protein-1 (MCP-1); test: Mouse dorsal air pouch model: MCP-1 in exudates; type: in vivo, C57/B16 mice; details: 100 ng docosanoid intra-pouch; for secretion of MCP-1 in air pouch exudates: 100 ng TNFα, 4 hours; for inhibition of MCP-1 secretion versus indomethacin: indomethacin 2 mg/kg i.p.
Excerpt: as §1

human T lymphocytes = test: TNFα secretion by human T lymphocytes stimulated with anti-CD3/anti-CD28 antibodies; type: cell-based; details: 6 hrs pretreatment, 41 hrs on anti-CD3/anti-CD28; difference p=0.037 at 10 nM
Protocol: FIG. 22A: Effect of Docosanoids on TNFα Secretion by Human T Lymphocytes. The assay was performed essentially as described in Ariel et al, 2005. Briefly, human peripheral blood mononuclear cells were isolated from venous blood by Ficoll-Paque™ Plus (Amersham biosciences) gradient. T lymphocytes were isolated using a human T cell enrichment column (R&D Systems) per manufacturer's instructions. Purified T cells were treated with 10,17-dihydroxy DPAn-6 or 10,17-dihydroxy DHA or vehicle (0.05% ethanol) in RPMI-1640 media containing 10% heat inactivated fetal bovine serum for 6 hrs at 37° C. Lymphocytes (200,000 cells in 200 μl media per well) were then transferred to 96-well plates coated with both anti-CD3 antibody and anti-CD28 antibody (100 μl of 2 μg/ml of each antibody overnight to coat wells) and incubated for 41 hrs. TNFα concentrations were determined in cell supernatants by ELISA (R&D Systems). Group means±stdev (n=4) were compared by Student's t test. *p<0.05 and **p<0.01 compared to control; # indicates statistical difference (p=0.037) between the groups treated with 10,17-dihydroxy DPAn-6 and 10,17-dihydroxy DHA at the 10 nM concentrations.

Soybean 15-lipoxygenase = biological target: T1, Soybean 15-lipoxygenase (Glycine max, UniProt P08170); test: 15-lipoxygenase reaction with fatty acid substrates (conversion to conjugated diene); type: biochemical; details: 100 μM fatty acid, 4 μg/ml enzyme, 0.05 M sodium borate pH 9.0, 0° C, absorbance 238 nm
T1 construct: purchased Sigma-Aldrich
T1 sequence (P08170 1-839): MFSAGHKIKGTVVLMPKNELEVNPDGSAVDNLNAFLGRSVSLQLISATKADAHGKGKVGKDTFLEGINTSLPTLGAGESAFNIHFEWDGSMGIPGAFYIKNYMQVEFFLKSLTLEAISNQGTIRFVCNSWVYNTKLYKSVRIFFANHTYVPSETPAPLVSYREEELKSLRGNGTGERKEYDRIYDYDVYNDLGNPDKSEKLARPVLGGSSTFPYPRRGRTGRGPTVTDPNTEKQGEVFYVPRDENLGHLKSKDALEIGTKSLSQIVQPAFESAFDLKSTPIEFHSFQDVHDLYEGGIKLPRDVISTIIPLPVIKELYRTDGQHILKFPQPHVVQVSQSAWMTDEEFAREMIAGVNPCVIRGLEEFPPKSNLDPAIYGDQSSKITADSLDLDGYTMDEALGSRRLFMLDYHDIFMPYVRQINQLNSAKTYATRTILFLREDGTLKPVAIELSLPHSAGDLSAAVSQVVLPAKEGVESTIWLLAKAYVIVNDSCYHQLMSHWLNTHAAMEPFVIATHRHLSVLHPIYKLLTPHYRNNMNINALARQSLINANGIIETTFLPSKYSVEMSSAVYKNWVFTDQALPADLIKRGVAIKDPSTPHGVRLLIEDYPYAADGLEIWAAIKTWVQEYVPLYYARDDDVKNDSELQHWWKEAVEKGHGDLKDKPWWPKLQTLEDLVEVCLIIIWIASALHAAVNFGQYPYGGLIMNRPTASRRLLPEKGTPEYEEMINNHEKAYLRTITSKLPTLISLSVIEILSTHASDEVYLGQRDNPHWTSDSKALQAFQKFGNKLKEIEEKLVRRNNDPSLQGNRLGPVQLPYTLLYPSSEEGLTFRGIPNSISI
Protocol: Soybean 15-lipoxygenase (Sigma-Aldrich, St. Louis, Mo.) at a final concentration of 4 μg/ml was mixed into 100 μM solutions of DHA, DPAn-6, or DPAn-3 (NuChek Prep, Elysian, Minn.) in 0.05 M sodium borate buffer, pH 9.0, and the reaction mixtures were incubated at 0° C. Appearance of the mono-hydroxy conjugated diene derivatives of the fatty acids was monitored through absorbance at 238 nm. Conjugated diene products were quantified using an extinction coefficient of 28,000 M^−1 cm^−1 (Shimizu et al; Methods in Enzymology, 1990 Vol 187, 296-306). As shown in Example. 1, 100% of the DPAn-6 was efficiently converted to its conjugated diene derivative under these conditions, whereas about 85% of DPAn-3 and 50% of DHA were converted to their respective conjugated diene (mono-hydroxy) derivative by the 15-lipoxygenase. No appreciable accumulation of the dihydroxy derivatives occurred under these reaction conditions.

hind paw edema = test: Carrageenan-induced rat paw edema after feeding LCPUFA diets; type: in vivo, Sprague Dawley rats; details: diet 4 weeks, 1% carrageenan, 3 hours post-injection, Day 28
Protocol: Adult, male, Sprague Dawley rats (n=10/treatment group) were fed modified AlN-76 diets formulated to include 1.2% DHA, 1.2% DHA+0.44% DPAn-6, or 1.2% DHA+0.46% arachidonic acid (ARA) for 4 weeks. Carrageenan (1%) was used to induce hind paw edema on Day 14 (left paw) and Day 28 (right paw) of feeding. Edema was measured plethysmographically using water displacement 3 hours post-injection. Similar results were obtained on day 14. *p≦0.05.

Molecule	secretion of IL-1β in air pouch exudates (IL-1β)	total number of cells in the pouch [2]	secretion of MCP-1 in air pouch exudates [3]	inhibition of MCP-1 secretion versus indomethacin [3]	further results
CC/C=C\C/C=C\C/C=C\C/C=C\C/C=C\C/C=C\CCC(=O)O [DHA, docosahexaenoic acid, reference compound]	–	–	–	–	reduction in inflammatory cytokine production [1]: 13-29%
10,17-dihydroxy DPAn-6	significant reductions	significant reductions	significant reductions	larger inhibition of MCP-1 secretion than indomethacin	reduction of IL-1β versus comparators (IL-1β; indomethacin 2 mg/kg i.p.): significantly larger than with that produced by either the DHA oxylipin derivative or indomethacin; reducing TNFα secretion by T lymphocytes, versus DHA analog (human T lymphocytes): more potent than the DHA analog
CCCCCC(O)/C=C/C=C\C/C=C\C/C=C\C/C=C\CCC(=O)O (centres unmarked) [17-hydroxy DPAn-6]	significant reductions	significant reductions	significant reductions	larger inhibition of MCP-1 secretion than indomethacin	potency in reducing cell infiltration versus comparators ([2]; indomethacin 2 mg/kg i.p.): more potent than both 17R-hydroxy DHA and indomethacin
CC/C=C\C/C=C\C/C=C\C/C=C\C/C=C\CCCCCC(=O)O [DPAn-3, docosapentaenoic acid (C22:5n-3)]	–	–	–	–	converted to conjugated diene (mono-hydroxy) derivative by the 15-lipoxygenase (Soybean 15-lipoxygenase): about 85%
CCCCC/C=C\C/C=C\C/C=C\C/C=C\CCCC(=O)O [ARA, arachidonic acid]	–	–	–	–	edema volume (hind paw edema): reversed the anti-inflammatory activity of DHA
